# Tested on: MDA-MB-361 tumor xenografts
# Experiment: Tumor growth in HER2-overexpressing MDA-MB-361 breast cancer xenograft model
# Assay type: in vivo, nude mice
# Settings: 20 μg DNA; paclitaxel 15 mg/kg i.p.; compared with LPD-Luciferase
# Description: Female nude mice were inoculated with HER2-overexpressing MDA-MB-361 cells in the mammary fat pad. After the formation of 8-10 tumors per group (5 animals per group, -2 tumors per animal), mice were given one of the following treatments: naked E1A DNA (20 μg DNA, light circles), vehicle only (small squares), LPD-luciferase (20 μg DNA, triangles), LPD-E1A (20 μg DNA, dark circles), paclitaxel (15 mg/kg, light triangles), or LPD-E1A (20 μg DNA) plus paclitaxel (15 mg/kg) (large squares). The tumor growth ratio was determined by comparing the size of the treated tumors with the size of the original tumor before any treatment. The error bars indicate s.e.m.
compound,measurement,value
CC(=O)O[C@H]1C(=O)[C@@]2(C)[C@H]([C@H](OC(=O)c3ccccc3)[C@]3(O)C[C@H](OC(=O)[C@H](O)[C@@H](NC(=O)c4ccccc4)c4ccccc4)C(C)=C1C3(C)C)[C@]1(OC(C)=O)CO[C@@H]1C[C@@H]2O [paclitaxel],tumor growth,decreased tumor growth
